The data set can be described thus: recombinant UMI read abundance after kanamycin selection (control-corrected) (log10(CPM+1)); higher = more efficient recombination; extreme values may be limits of the assay; sequences stand for … in AGTGCAGAGAAAATCGGCCAGTTTTCTCTGCCTGCAGTCCGCATGCCGTGGGACCCCTTGGGTTCTAACCTGTTGCCTAGATTTATGCAGCGGACTGCCTTTCTCCCAAAGTGATAAACCGG…AGGTTGGTTTCACT; site = the 11-nt donor. Summed up: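 Each donor and donor-binding-loop pair was tracked by a 12-nt UMI on a plasmid carrying a promoterless kanamycin gene. With a second plasmid supplying a fixed target and T7-inducible IS621 bridge recombinase, the pool was plated in Escherichia coli on IPTG (0.07 mM) plus kanamycin or unselected. Sequencing of recombinant UMIs across the donor–target junction gave counts expressed as log10(CPM+1) after replicate averaging and control-derived scaling.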
With “CAAGCAGCATGGACCGGTTTTCCCGGTAATCCGTATTTGCT (site CAAGCTGCTAG)”, the “recombinant UMI read abundance (log10)” value came out at 0.0658. The same measure for “CAAGCAGCATGGACCGGTTTTCCCGGTAATCCGTATTTGCT (site CAAGGAGCTAG)”: 0; for “CAAGCAGCATGGACCGGTTTTCCCGGTAATCCGTATTTGCT (site CAAGTAGCTAG)”: 0. Consider “CAAGCAGCATGGACCGGTTTTCCCGGTAATCCGTATTTGCT (site CAATCAGCTAG)”, for which the “recombinant UMI read abundance (log10)” value was determined as 0.

With “CAAGCAGCATGGACCGGTTTTCCCGGTAATCCGTATTTGCT (site CACGCAGCTAG)”, the “recombinant UMI read abundance (log10)” value worked out at 0.416.

With “CAAGCAGCATGGACCGGTTTTCCCGGTAATCCGTATTTGCT (site CAGGCAGCTAG)”, the “recombinant UMI read abundance (log10)” value was determined as 0.00336. “CAAGCAGCATGGACCGGTTTTCCCGGTAATCCGTATTTGCT (site CATGCAGCTAG)”: the “recombinant UMI read abundance (log10)” value amounted to 0.0527.

On to “CAAGCAGCATGGACCGGTTTTCCCGGTAATCCGTATTTGCT (site CCAGCAGCTAG)”, for which the “recombinant UMI read abundance (log10)” value turned out to be 0.00438. In the case of “CAAGCAGCATGGACCGGTTTTCCCGGTAATCCGTATTTGCT (site CGAGCAGCTAG)”, the “recombinant UMI read abundance (log10)” value turned out to be 0.00425.

For the sequence “CAAGCAGCATGGACCGGTTTTCCCGGTAATCCGTATTTGCT (site CTAGCAGCTAG)”, the “recombinant UMI read abundance (log10)” value came to 0.616. Turning to “CAAGCAGCATGGACCGGTTTTCCCGGTAATCCGTATTTGCT (site GAAGCAGCTAG)”, the “recombinant UMI read abundance (log10)” value was 0.0166.

As for “CAAGCAGCATGGACCGGTTTTCCCGGTAATCCGTATTTGCT (site TAAGCAGCTAG)”, the “recombinant UMI read abundance (log10)” value worked out at 0.00331. Turning to “CAAGCAGCATGGACCGGTTTTCCCGGTAATCCGTATTTGTT (site CAAGCAGCTAA)”, the “recombinant UMI read abundance (log10)” value was 1.83. “CAAGCAGCATGGACCGGTTTTCCCGGTAATCCGTATTTGTT (site CAAGCAGCTAC)”: the “recombinant UMI read abundance (log10)” value is 0.0209. Turning to “CAAGCAGCATGGACCGGTTTTCCCGGTAATCCGTATTTGTT (site CAAGCAGCTAG)”, the “recombinant UMI read abundance (log10)” value is 2.47. Take “CAAGCAGCATGGACCGGTTTTCCCGGTAATCCGTATTTGTT (site CAAGCAGCTAT)”: the “recombinant UMI read abundance (log10)” value was 1.65.

On to “CAAGCCCCATGGACCGGTTTTCCCGGTAATCCGTATTTGTG (site CAAGCACCTCA)”, for which the “recombinant UMI read abundance (log10)” value is 0.0304. Consider “CAAGCCCCATGGACCGGTTTTCCCGGTAATCCGTATTTGTG (site CAAGCCCCTCA)”, for which the “recombinant UMI read abundance (log10)” value is 0.0397. For the sequence “CAAGCCCCATGGACCGGTTTTCCCGGTAATCCGTATTTGTG (site CAAGCGCCTCA)”, the “recombinant UMI read abundance (log10)” value amounted to 0.0132.

For the sequence “CAAGCCCCATGGACCGGTTTTCCCGGTAATCCGTATTTGTG (site CAAGCTCCTCA)”, the “recombinant UMI read abundance (log10)” value turned out to be 0.0205. With “CAAGCGCCATGGACCGGTTTTCCCGGTAATCCGTATTTGAG (site CAAGCGCCTCA)”, the “recombinant UMI read abundance (log10)” value is 0.0151. Regarding “CAAGCGCCATGGACCGGTTTTCCCGGTAATCCGTATTTGAG (site CAAGCGCCTCC)”, the “recombinant UMI read abundance (log10)” value is 0.0109. For “CAAGCGCCATGGACCGGTTTTCCCGGTAATCCGTATTTGAG (site CAAGCGCCTCG)”, the “recombinant UMI read abundance (log10)” value is 0.0182. The same measure for “CAAGCGCCATGGACCGGTTTTCCCGGTAATCCGTATTTGAG (site CAAGCGCCTCT)”: 0.322; for “CAAGCGCCATGGACCGGTTTTCCCGGTAATCCGTATTTGTA (site CAAGCGCCTAA)”: 0.239; for “CAAGCGCCATGGACCGGTTTTCCCGGTAATCCGTATTTGTA (site CAAGCGCCTCA)”: 0.173. On to “CAAGCGCCATGGACCGGTTTTCCCGGTAATCCGTATTTGTA (site CAAGCGCCTGA)”, for which the “recombinant UMI read abundance (log10)” value was 1.01.

With “CAAGCGCCATGGACCGGTTTTCCCGGTAATCCGTATTTGTA (site CAAGCGCCTTA)”, the “recombinant UMI read abundance (log10)” value was determined as 1.49. As to “CAAGCGTCATGGACCGGTTTTCCCGGTAATCCGTATTTGTG (site CAAGCGACTCA)”, the “recombinant UMI read abundance (log10)” value stood at 0.101. On to “CAAGCGTCATGGACCGGTTTTCCCGGTAATCCGTATTTGTG (site CAAGCGCCTCA)”, for which the “recombinant UMI read abundance (log10)” value was found to be 0.0275. “CAAGCGTCATGGACCGGTTTTCCCGGTAATCCGTATTTGTG (site CAAGCGGCTCA)”: the “recombinant UMI read abundance (log10)” value was found to be 0.00505.

On to “CAAGCGTCATGGACCGGTTTTCCCGGTAATCCGTATTTGTG (site CAAGCGTCTCA)”, for which the “recombinant UMI read abundance (log10)” value came to 2.6. Regarding “CAAGGAACATGGACCGGTTTTCCCGGTAATCCGTATTTGCT (site CAAGGAACTAG)”, the “recombinant UMI read abundance (log10)” value was 2.26. On to “CAAGGAGCATGGACCGGTTTTCCCGGTAATCCGTATTTGCT (site CAAGAAGCTAG)”, for which the “recombinant UMI read abundance (log10)” value amounted to 2.45.

The record behind these values is the supplement of paper PMC11208160.
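Note: IS621 bridge recombinase in Escherichia coli cells against a fixed T5 target plasmid.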
